Results as given in paper PMC12610274, “Identification of Marrubiin as a Cathepsin C Inhibitor for Treating Rheumatoid Arthritis” (Molecules, 2025).

Test system: CTSC and NSPs
Test: AIA model, serum CTSC and NSPs activities, stated together
Assay type: in vivo, Sprague-Dawley rats
Conditions: rat AIA, low-dose (15 mg/kg) and medium-dose (30 mg/kg) groups
Procedure: Thirty 4-week-old male Sprague-Dawley rats (weighing 120–130 g) were randomly divided into 6 groups (5 rats per group) after 1 week of adaptive feeding, namely the normal group, model group, low-dose experimental group (15 mg/kg), medium-dose experimental group (30 mg/kg), high-dose experimental group (60 mg/kg), and positive control group (30 mg/kg). Starting from Day 0 of the experiment, rats in the administration groups and model group were injected intradermally with 0.1 mL of CFA into the left hind paw to induce AIA, while rats in the normal group were injected intradermally with an equal volume (0.1 mL) of normal saline as a control. After 13 consecutive days of feeding, rats treated with CFA successfully developed typical AIA symptoms. […] During the experiment, the body weight, mental state, activity ability, hair color changes, and paw appearance changes of the rats were observed and recorded daily. In addition, on Day 0 of the experiment (baseline period), the basic paw volume of all rats was accurately measured using a plethysmometer, which served as a reference standard for subsequent evaluation of inflammation severity. From Day 13 to Day 28 of the experiment, the paw volume of the rats was measured repeatedly every 3 days. The degree of paw swelling was quantified by calculating the change in paw volume relative to the baseline. […] The cytokine levels in serum were measured. […]

Compound: C[C@@H]1C[C@H]2OC(=O)[C@@]3(C)CCC[C@@](C)([C@@H]23)[C@@]1(O)CCc1ccoc1 [Marrubiin, marrubiin]
- serum activities of CTSC and NSPs: no significant reduction effect
